Assay results published in patent publication US20110039721A1, “METHOD FOR PREDICTION ABOUT CARCINOGENICITY OF SUBSTANCE IN RODENT” (Chemicals Evaluation and Research Institute, priority 2007, published 2011).
Structures can show the parent of a compound that is named as a salt.

Assays:
[1] = tested on: rodent; settings: in vivo; cited from earlier work
[2] = tested on: liver; settings: in vivo; cited from earlier work
[3] = tested on: mRNA expressed from the genes (A) to (D) in rat liver; assay: Behavior of genes (mRNA expression level, oligo-DNA microarray) in rat liver after 28-day oral administration; format: in vivo
Outline: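 Liver mRNA measured by oligo-DNA microarray after 28 days of once-daily oral gavage in 5-week-old male F344 rats (n=4 per group), with vehicle controls given equal solvent volume. Significance threshold: 1.5-fold up or down versus control, with changes opposite in direction to other carcinogens counted as not significant.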

[4] = (C), Unigene Rn.120914, defined direction +, rat liver, oral once daily 28 days

CN(C)CCN(Cc1cccs1)c1ccccn1 [TS053, Methapyrilene HCl]
Carcinogenicity [1]: C+ | Liver carcinogenicity [2]: Cr+

CC(N)=O [TS067, Acetamide]
Carcinogenicity [1]: C+ | Behavior of gene caused by administration of chemical substance, Gene No. 4846 ([3]; (A), Unigene Rn.144554, defined direction +, rat liver, oral once daily 28 days): + | Behavior of gene caused by administration of chemical substance, Gene No. 4218 ([3]; (A), Unigene Rn.167075, defined direction +, rat liver, oral once daily 28 days, significant = 1.5 times or more or 1/1.5 or less of control): − | Behavior of gene caused by administration of chemical substance, Gene No. 2026 ([3]; (A), Unigene Rn.167075, defined direction −, rat liver, oral once daily 28 days): + | Behavior of gene caused by administration of chemical substance, Gene No. 6182 ([3]; (A), Unigene Rn.5834, defined direction +, rat liver, oral once daily 28 days): − | Behavior of gene caused by administration of chemical substance, Gene No. 5600 ([3]; (A), Unigene Rn.9836, defined direction +, rat liver, oral once daily 28 days): − | Behavior of gene caused by administration of chemical substance, Gene No. 1494 ([3]; (B), Unigene Rn.1430, defined direction −, rat liver, oral once daily 28 days): − | Behavior of gene caused by administration of chemical substance, Gene No. 2045 ([3]; (B), Unigene Rn.19329, defined direction +, rat liver, oral once daily 28 days): − | Behavior of gene caused by administration of chemical substance, Gene No. 2203 ([3]; (B), Unigene Rn.21240, defined direction +, rat liver, oral once daily 28 days): − | Behavior of gene caused by administration of chemical substance, Gene No. 533 ([3]; (C), Unigene Rn.106184, defined direction +, rat liver, oral once daily 28 days): + | Behavior of gene caused by administration of chemical substance, Gene No. 725 ([3]; (C), Unigene Rn.108075, defined direction −, rat liver, oral once daily 28 days): − | Behavior of gene caused by administration of chemical substance, Gene No. 1163 ([3]; (C), Unigene Rn.11766, defined direction +, rat liver, oral once daily 28 days): − | Behavior of gene caused by administration of chemical substance, Gene No. 4973 ([3]; (C), Unigene Rn.118529, defined direction −, rat liver, oral once daily 28 days): − | Behavior of gene caused by administration of chemical substance, Gene No. 4095 ([3]; (C), Unigene Rn.119024, defined direction −, rat liver, oral once daily 28 days): − | Behavior of gene caused by administration of chemical substance, Gene No. 1334 [3, 4]: − | Behavior of gene caused by administration of chemical substance, Gene No. 6620 [3, 4]: − | Behavior of gene caused by administration of chemical substance, Gene No. 6303 ([3]; (C), Unigene Rn.123063, defined direction −, rat liver, oral once daily 28 days): + | Behavior of gene caused by administration of chemical substance, Gene No. 5878 ([3]; (C), Unigene Rn.143213, defined direction −, rat liver, oral once daily 28 days): − | Behavior of gene caused by administration of chemical substance, Gene No. 1131 ([3]; (C), Unigene Rn.144946, defined direction −, rat liver, oral once daily 28 days): − | Behavior of gene caused by administration of chemical substance, Gene No. 1562 ([3]; (C), Unigene Rn.14744, defined direction −, rat liver, oral once daily 28 days): − | Behavior of gene caused by administration of chemical substance, Gene No. 1741 ([3]; (C), Unigene Rn.1647, defined direction −, rat liver, oral once daily 28 days): − | Behavior of gene caused by administration of chemical substance, Gene No. 893 ([3]; (C), Unigene Rn.164817, defined direction +, rat liver, oral once daily 28 days): − | Behavior of gene caused by administration of chemical substance, Gene No. 6026 ([3]; (C), Unigene Rn.167685, defined direction −, rat liver, oral once daily 28 days): − | Behavior of gene caused by administration of chemical substance, Gene No. 154 ([3]; (C), Unigene Rn.185941, defined direction −, rat liver, oral once daily 28 days): + | Behavior of gene caused by administration of chemical substance, Gene No. 1993 ([3]; (C), Unigene Rn.18728, defined direction −, rat liver, oral once daily 28 days): − | Behavior of gene caused by administration of chemical substance, Gene No. 813 ([3]; (C), Unigene Rn.201760, defined direction +, rat liver, oral once daily 28 days): − | Behavior of gene caused by administration of chemical substance, Gene No. 2494 ([3]; (C), Unigene Rn.23969, defined direction +, rat liver, oral once daily 28 days): − | Behavior of gene caused by administration of chemical substance, Gene No. 2546 ([3]; (C), Unigene Rn.24561, defined direction −, rat liver, oral once daily 28 days): − | Behavior of gene caused by administration of chemical substance, Gene No. 3776 ([3]; (C), Unigene Rn.43232, defined direction −, rat liver, oral once daily 28 days): − | Behavior of gene caused by administration of chemical substance, Gene No. 3929 ([3]; (C), Unigene Rn.4620, defined direction +, rat liver, oral once daily 28 days): − | Behavior of gene caused by administration of chemical substance, Gene No. 1119 ([3]; (C), Unigene Rn.9757, defined direction +, rat liver, oral once daily 28 days): − | Behavior of gene caused by administration of chemical substance, Gene No. 6742 ([3]; (C), Unigene Rn.9779, defined direction +, rat liver, oral once daily 28 days): − | Behavior of gene caused by administration of chemical substance, Gene No. 5634 ([3]; (C), Unigene Rn.9862, defined direction −, rat liver, oral once daily 28 days): − | Behavior of gene caused by administration of chemical substance, Gene No. 5726 ([3]; (D), Unigene Rn.9939, defined direction −, rat liver, oral once daily 28 days): −

Cc1ccccc1[N+](=O)[O-] [TS087, o-Nitrotoluene]
Carcinogenicity [1]: C+ | Behavior of gene caused by administration of chemical substance ([3]; Gene No. 154, Rn.185941, group (C)): − | Behavior of gene caused by administration of chemical substance ([3]; Gene No. 533, Rn.106184, group (C)): + | Behavior of gene caused by administration of chemical substance ([3]; Gene No. 725, Rn.108075, group (C)): + | Behavior of gene caused by administration of chemical substance ([3]; Gene No. 813, Rn.201760, group (C)): − | Behavior of gene caused by administration of chemical substance ([3]; Gene No. 893, Rn.164817, group (C)): − | Behavior of gene caused by administration of chemical substance ([3]; Gene No. 1119, Rn.9757, group (C)): − | Behavior of gene caused by administration of chemical substance ([3]; Gene No. 1131, Rn.144946, group (C)): − | Behavior of gene caused by administration of chemical substance ([3]; Gene No. 1163, Rn.11766, group (C)): − | Behavior of gene caused by administration of chemical substance ([3]; Gene No. 1334, Rn.120914, group (C)): − | Behavior of gene caused by administration of chemical substance ([3]; Gene No. 1494, Rn.1430, group (B)): + | Behavior of gene caused by administration of chemical substance ([3]; Gene No. 1562, Rn.14744, group (C)): − | Behavior of gene caused by administration of chemical substance ([3]; Gene No. 1741, Rn.1647, group (C)): − | Behavior of gene caused by administration of chemical substance ([3]; Gene No. 1993, Rn.18728, group (C)): − | Behavior of gene caused by administration of chemical substance ([3]; Gene No. 2026, Rn.167075, group (A)): + | Behavior of gene caused by administration of chemical substance ([3]; Gene No. 2045, Rn.19329, group (B)): − | Behavior of gene caused by administration of chemical substance ([3]; Gene No. 2203, Rn.21240, group (B)): − | Behavior of gene caused by administration of chemical substance ([3]; Gene No. 2494, Rn.23969, group (C)): − | Behavior of gene caused by administration of chemical substance ([3]; Gene No. 2546, Rn.24561, group (C)): − | Behavior of gene caused by administration of chemical substance ([3]; Gene No. 3776, Rn.43232, group (C)): − | Behavior of gene caused by administration of chemical substance ([3]; Gene No. 3929, Rn.4620, group (C)): − | Behavior of gene caused by administration of chemical substance ([3]; Gene No. 4095, Rn.119024, group (C)): − | Behavior of gene caused by administration of chemical substance ([3]; Gene No. 4218, Rn.167075, group (A)): + | Behavior of gene caused by administration of chemical substance ([3]; Gene No. 4846, Rn.144554, group (A)): + | Behavior of gene caused by administration of chemical substance ([3]; Gene No. 4973, Rn.118529, group (C)): + | Behavior of gene caused by administration of chemical substance ([3]; Gene No. 5600, Rn.9836, group (A)): + | Behavior of gene caused by administration of chemical substance ([3]; Gene No. 5634, Rn.9862, group (C)): − | Behavior of gene caused by administration of chemical substance ([3]; Gene No. 5726, Rn.9939, group (D)): − | Behavior of gene caused by administration of chemical substance ([3]; Gene No. 5878, Rn.143213, group (C)): − | Behavior of gene caused by administration of chemical substance ([3]; Gene No. 6026, Rn.167685, group (C)): − | Behavior of gene caused by administration of chemical substance ([3]; Gene No. 6182, Rn.5834, group (A)): + | Behavior of gene caused by administration of chemical substance ([3]; Gene No. 6303, Rn.123063, group (C)): + | Behavior of gene caused by administration of chemical substance ([3]; Gene No. 6620, Rn.120914, group (C)): − | Behavior of gene caused by administration of chemical substance ([3]; Gene No. 6742, Rn.9779, group (C)): −
